Earlier results in patent US20090311237A1, “Combination therapy using a soluble hyaluronidase and a bisphosphonate” (priority 2008, published 2009).

Details: IV infusion; cited from earlier work

For `O=P(O)(O)C(O)(Cn1ccnc1)P(=O)(O)O` [ZA, 1-hydroxy-2-(1H-imidazol-1-yl)ethylidene-1,1-bisphosphonic acid], the “patients with skin irritation at the injection site” value is given as 1%.
